# According to patent publication US11084829B2, “Ubiquitin-specific-processing protease 7 (USP7) modulators and uses thereof” (RAPT THERAPEUTICS, INC., priority 2018, dated 2021):
# Experiments:
# Assay type in all cases: cell-based
# M07e = assay: Cell viability (CellTiter-Glo), M07e; conditions: M-07e, AML, p53 wild-type
# Description: (§1) CHP-134 was purchased from Sigma Aldrich, MOLM-13 was purchased from AddexBio, and NB-1 was purchased from Sekisui XenoTech. All other cell lines were purchased from American Type Culture Collection. For all cell lines, identity was confirmed by short tandem repeat profiling and culturing was performed in recommended growth medium. For studies evaluating cellular effects of compound treatment, 250 to 2,000 cells in 40 μl of recommended medium were seeded per well in 384-well plates (Corning 3764). DMSO-solubilized compounds were added in duplicate in a two-fold dilution series using a D300e Digital Dispenser (Hewlett-Packard). Following a 5-day incubation, cell viability was measured using CellTiter-Glo (Promega) following the manufacturer's instructions. Luminescence was measured using a CLARIOstar plate reader (BMG LABTECH) and normalized to that of DMSO-treated cells. IC50 values were determined by non-linear regression using a 4-parameter fit in Prism (GraphPad Software). Inhibitor profiling of the 430-cell line panel was conducted and analyzed similarly.
# (§2) USP7 inhibition by the compounds of Examples 31 and 124 reduced the viability of several p53-wild type blood cancer cell lines, including M07e, OCI-AML5 and MOLM13, in vitro as shown in the following Table 3. Idasanutlin was used as a positive control, and as expected these cell lines were also sensitive to this compound.
# OCI-AML5 = assay: Cell viability (CellTiter-Glo), OCI-AML5; conditions: Homo sapiens, OCI-AML-5, p53 wild-type
# Description: as §1, §2
# MOLM13 = assay: Cell viability (CellTiter-Glo), MOLM13; conditions: Homo sapiens, MOLM-13; MOLM13, AML, p53 wild-type
# Description: as §1, §2
# EOL-1 = assay: Cell viability (CellTiter-Glo), EOL-1; conditions: Homo sapiens, EOL1; EOL-1, AML, p53 wild-type
# Description: as §1, §2
# MOLP8 = assay: Cell viability (CellTiter-Glo), MOLP8; conditions: Homo sapiens, MOLP-8; MOLP8, MM, p53 wild-type
# Description: as §1, §2
# NCI-H929 = assay: Cell viability (CellTiter-Glo), NCI-H929; conditions: Homo sapiens; NCI-H929, MM, p53 wild-type
# Description: as §1, §2
# MM.1S = assay: Cell viability (CellTiter-Glo), MM.1S; conditions: Homo sapiens, MM1.S, p53 wild-type
# Description: as §1, §2
# SH-SY5Y = assay: Cell viability (CellTiter-Glo), SH-SY5Y; conditions: Homo sapiens, neuroblastoma, MYC amplified, p53 wild-type
# Description: as §1
# (§3) USP7 has been reported to stabilize MYCN (also referred to as MYCN proto-oncogene, a gene that is a member of the MYC family which is over-expressed in a variety of tumors). Since MYCN amplification is an established driver mutation in neuroblastoma, the effect of USP7 inhibition on a panel of p53 wild-type, MYCN- or MYC-amplified neuroblastoma cell lines was tested. The USP7 inhibitors of Examples 31 and 124 reduced viability of all three MYCN-amplified and two MYC-amplified neuroblastoma cell lines tested as shown in Table 4. Idasanutlin was used as a positive control, and as expected these cell lines were also sensitive to this compound.
# SK-N-SH = assay: Cell viability (CellTiter-Glo), SK-N-SH; conditions: Homo sapiens, neuroblastoma, MYC amplified, p53 wild-type
# Description: as §1
# (§4) USP7 has been reported to stabilize MYCN (also referred to as MYCN proto-oncogene, a gene that is a member of the MYC family which is over-expressed in a variety of tumors). […]
# IMR-32 = assay: Cell viability (CellTiter-Glo), IMR-32; conditions: Homo sapiens; IMR-32, neuroblastoma, MYCN amplified, p53 wild-type
# Description: as §1, §4
# CHP-134 = assay: Cell viability (CellTiter-Glo), CHP-134; conditions: Homo sapiens; CHP-134, neuroblastoma, MYCN amplified, p53 wild-type
# Description: as §1, §3
# NB-1 = assay: Cell viability (CellTiter-Glo), NB-1; conditions: Homo sapiens, NB1; NB-1, neuroblastoma, MYCN amplified, p53 wild-type
# Description: as §1, §3
# H526 = assay: Cell viability (CellTiter-Glo), H526
# Description: as §1
# (§5) In addition to the many p53 wild-type cell lines in the cell line panel that were sensitive to USP7 inhibition, a subset of p53 mutant cell lines that were inhibited by our USP7 inhibitors were identified and are shown in Table 5.
# The effect of pharmacological inhibition of USP7 on the viability of the p53 mutant small cell lung cancer cell line, H526 was further evaluated. […] In contrast, idasanutlin, whose inhibitory effect is dependent on a functional p53 pathway, had no effect.
# EBC-1 = assay: Cell viability (CellTiter-Glo), EBC-1; conditions: Homo sapiens; EBC-1, lung, squamous cell carcinoma, p53-mutant
# Description: as §1, §5
# NCI-H820 = assay: Cell viability (CellTiter-Glo), NCI-H820; conditions: NCI-H820, lung, papillary adenocarcinoma, p53-mutant
# Description: as §1, §5
# NCI-H2009 = assay: Cell viability (CellTiter-Glo), NCI-H2009; conditions: Homo sapiens; NCI-H2009, lung, adenocarcinoma, p53-mutant
# Description: as §1, §5
# HUH-7 = assay: Cell viability (CellTiter-Glo), HUH-7; conditions: Homo sapiens; HUH-7, hepatocellular carcinoma, p53-mutant
# Description: as §1, §5
# MHCC97-H = assay: Cell viability (CellTiter-Glo), MHCC97-H; conditions: Homo sapiens, MHCC97H, hepatocellular carcinoma, p53-mutant
# Description: as §1, §5
# NCI-N87 = assay: Cell viability (CellTiter-Glo), NCI-N87; conditions: Homo sapiens; NCI-N87, gastric, p53-mutant
# Description: as §1, §5
# JJN-3 = assay: Cell viability (CellTiter-Glo), JJN-3; conditions: Homo sapiens; JJN-3, multiple myeloma, p53-mutant
# Description: as §1, §5
# HCC1806 = assay: Cell viability (CellTiter-Glo), HCC1806; conditions: Homo sapiens; HCC1806, breast, triple-negative, p53-mutant
# Description: as §1, §5
# HCC1937 = assay: Cell viability (CellTiter-Glo), HCC1937; conditions: Homo sapiens; HCC1937, breast, triple-negative, BRCA1 mutant, p53-mutant
# Description: as §1, §5
# LA-N-2 = assay: Cell viability (CellTiter-Glo), LA-N-2; conditions: LA-N-2, neuroblastoma, MYCN-amplified, p53-mutant
# Description: as §1, §5
# SK-N-DZ = assay: Cell viability (CellTiter-Glo), SK-N-DZ; conditions: Homo sapiens, neuroblastoma, MYCN-amplified, p53-mutant
# Description: as §1, §5
# H526 cells [1] = assay: Compound synergy (Bliss independence) in H526 cells
# Description: as §1
# Cancer Cell Line Encyclopedia (CCLE) mutation data was downloaded from https://data.broadinstitute.org/ccleiCCLE_DepMap_18Q2_maf_20180502.txt.gz. Genes were considered mutated if they were annotated in CCLE as containing variants that were either a TCGA Hotspot, a COSMIC Hotspot, or a deleterious variant. Genes with at least 6 mutated cell lines out of the 397 cell lines that overlapped with the cell line screening panel were tested one gene at a time in linear models or coordinately in multivariate models where the fraction cell signal at 1 μM compound was the dependent variable. For compound synergy analysis, a Bliss-independence model was used. Briefly, the products of the fraction of maximal cell signal for each of the tested compounds alone were calculated as the expected signal in the absence of any compound interaction. The log2 of the ratio of expected:observed signal was calculated to indicate synergy (positive) or interference (negative) interactions. For in vivo studies, interval-censored survival analysis was performed using the icenReg package (reference: https://cran.r-project.org/web/packages/icenReg/citation.html), using the “ic_par” parametric regression model with proportional hazards and a Weibull distribution.
# Tests were conducted to determine whether the USP7 inhibitor 3-((7-(5-chloro-3-methyl-2-(((R)-morpholin-2-yl)methyl)phenyl)thieno[3,2-b]pyridin-2-yl)methyl)-6,6-dimethyl-3-azabicyclo[3.1.0]hexane-2,4-dione potentiates the activity of DNA-damaging agents commonly used for small cell lung cancer chemotherapy, namely carboplatin, doxorubicin, and the PARP inhibitor olaparib.
# The effect of combining the USP7 inhibitor 3-((7-(5-chloro-3-methyl-2-(((R)-morpholin-2-yl)methyl)phenyl)thieno[3,2-b]pyridin-2-yl)methyl)-6,6-dimethyl-3-azabicyclo[3.1.0]hexane-2,4-dione with the PIM kinase inhibitor AZD 1208, the PI3K inhibitor pictilisib and the PI3K inhibitor taselisib in the p53 mutant H526 cell line was tested. […] Both PIM and PI3K promote the activity of mammalian target of rapamycin (mTOR), which regulates cellular protein translation and controls phosphorylation of S6 at the Ser235/236 site.
# [2] = system: phosphorylated histone H2AX (γ-H2AX); assay: γ-H2AX measurement (flow cytometry)
# Description: (§6) For Western blotting, compound-treated cells were lysed in RIPA lysis buffer (ThermoScientific) containing Halt Protease and Phosphatase Inhibitor Cocktail (Life Technologies). Lysates were quantified using the BCA protein assay (Pierce) and equivalent protein was separated by SDS-PAGE (4-12%, ThermoScientific). Following electrophoresis, proteins were transferred to PVDF membranes. […] Caspase activation assays were performed on compound-treated cells using the Caspase-Glo 3/7 Assay Kit (Promega) according to the manufacturer's protocol, and luminescence was measured using a CLARIOstar plate reader (BMG LABTECH). […] Data were collected using FACSCanto (Becton Dickinson) and Attune (Thermo Fisher Scientific) flow cytometers and analyzed with FlowJo software (FlowJo LLC). […] Lysates were quantified using the BCA protein assay (Pierce) and equivalent protein was used in the PathScan Phospho-S6 Ribosomal Protein (Ser235/236) Sandwich ELISA Kit (Cell Signaling) according to the manufacturer's protocol. Absorbance was measured using the Spectramax 300 plate reader (Molecular Devices). […]
# [3] = system: phosphorylated S6 (Ser235/236); assay: Phospho-S6 ELISA; conditions: treatment with the compound alone
# Description: as §6
# H526 cells [4] = assay: Apoptosis (caspase-3/7 induction, sub-G1 population) in H526 cells; conditions: starting 72 hours post treatment, data not shown
# Description: as §6
# H526 cells [5] = assay: RNASeq transcriptomic profiling and gene set enrichment in H526 cells; conditions: treatment for 24 or 48 hours
# Description: RNA was extracted from approximately 1 million cells using the Allprep DNA/RNA Mini Kit (Qiagen). Whole transcriptome non-stranded libraries were prepared using the TruSeq RNA Library Prep Kit v2 (Illumina). Sequencing was performed on Illumina NovaSeq using paired-end mode, 200 cycles, targeting 40 million reads per sample, by MedGenome. Sequencing results were processed on the Seven Bridges Genomics platform through Kallisto Quant (version 0.43.1) aligning to the gencode.v27 transcript reference. Aligned reads were imported by tximport (version 1.10.1) and Treatment fold change and significance were calculated with DESeq2 (version 1.22.2) with an experimental design of “˜Time+Treatment+Time: Treatment” on genes with at least 10 counts. Shrunk log 2 fold changes (lfcShrink function, type=“apeglm”) were used for significance calculation.
# In order to identify pathways impacted by USP7 inhibition, RNASeq was used to profile transcriptomic changes in H526 cells following treatment with the USP7 inhibitor 3-((7-(5-chloro-3-methyl-2-(((R)-morpholin-2-yl)methyl)phenyl)thieno[3,2-b]pyridin-2-yl)methyl)-6,6-dimethyl-3-azabicyclo[3.1.0]hexane-2,4-dione for 24 or 48 hours. […] Measurement of transcriptional changes prior to 72 hours should thus uncover programs triggered by USP7 inhibition without being confounded by apoptosis pathways themselves. […]
smiles,measurement,setting,value
"COc1cc(C(=O)O)ccc1NC(=O)[C@@H]1N[C@@H](CC(C)(C)C)[C@](C#N)(c2ccc(Cl)cc2F)[C@H]1c1cccc(Cl)c1F [Idasanutlin, reference compound]",CC50,M07e,30 nM
same,CC50,OCI-AML5,40 nM
same,CC50,MOLM13,20 nM
same,CC50,EOL-1,50 nM
same,CC50,MOLP8,300 nM
same,CC50,NCI-H929,200 nM
same,CC50,MM.1S,20 nM
same,CC50,SH-SY5Y,100 to 500 nM
same,CC50,SK-N-SH,200 nM
same,CC50,IMR-32,240 nM
same,CC50,CHP-134,10 nM
same,CC50,NB-1,100 nM
same,effect on viability of H526,"H526; H526, p53 mutant small cell lung cancer, in vitro",had no effect
same,CC50,"H526; Homo sapiens, NCI-H526, H526, lung, small cell, p53-mutant, read-out: CC50",6500 nM
same,CC50,EBC-1,16200 nM
same,CC50,NCI-H820,9700 nM
same,CC50,NCI-H2009,> 25000 nM
same,CC50,HUH-7,> 25000 nM
same,CC50,MHCC97-H,> 25000 nM
same,CC50,NCI-N87,8600 nM
same,CC50,JJN-3,> 25000 nM
same,CC50,HCC1806,7500 nM
same,CC50,HCC1937,7100 nM
same,CC50,LA-N-2,5300 nM
same,CC50,SK-N-DZ,> 12500 nM
"Cc1cc(Cl)cc(-c2ccnc3cc(CN4C(=O)C5C(C4=O)C5(C)C)sc23)c1C[C@@H]1CNCCO1 (stereo partly drawn) [3-((7-(5-chloro-3-methyl-2-(((R)-morpholin-2-yl)methyl)phenyl)thieno[3,2-b]pyridin-2-yl)methyl)-6,6-dimethyl-3-azabicyclo[3.1.0]hexane-2,4-dione]",synergy with carboplatin,H526 cells [1]; combination with carboplatin,modest synergy
same,synergy with doxorubicin,H526 cells [1]; combination with doxorubicin,modest synergy
same,synergy with olaparib,H526 cells [1]; combination with the PARP inhibitor olaparib,modest synergy
same,synergy when dosed with itself,H526 cells [1]; compound dosed with itself (control),no synergy was observed
same,synergy with pictilisib,"H526 cells [1]; p53 mutant, combination with the PI3K inhibitor pictilisib",strongly synergized
same,synergy with taselisib,"H526 cells [1]; p53 mutant, combination with the PI3K inhibitor taselisib",strongly synergized
same,synergy with AZD 1208,"H526 cells [1]; p53 mutant, combination with the PIM kinase inhibitor AZD 1208",strongly synergized
same,levels of phosphorylated histone H2AX (γ-H2AX),[2]; USP7 inhibitor alone,did not increase levels of phosphorylated histone H2AX (γ-H2AX)
same,levels of γ-H2AX,[2]; combination of the USP7 inhibitor and carboplatin,increased γ-H2AX
same,levels of phosphorylated S6 (Ser235/236),[3],decreased levels of phosphorylated S6 (Ser235/236)
same,"apoptosis (caspase-3/7 induction, sub-G1 population)",H526 cells [4],induced apoptosis in H526 cells in a dose-dependent manner
same,transcriptomic changes (RNASeq),H526 cells [5],upregulation of a large number of genes normally silenced by the polycomb repressive complex 2 (PRC2)
